Measured values published in US6841657B2, “Inhibitors of HIV membrane fusion” (priority 1998, dated 2005).
Positions of bridges follow the written chain, without caps; N, C: chain ends. Non-standard residues stand in square brackets, D forms with d.

Columns and labels:
[1] = tested on: hydrophobic pocket of IQN17 (gp41); assay: 1H NMR assay of binding to the IQN17 hydrophobic pocket; parameters: species or system HIV-1; conditions: 1:1 complex with IQN17, 25° C., 100 mM NaCl, 50 mM sodium phosphate pH 7.5, D2O
From the text: NMR experiments were used to assay the binding of each D-peptide to IQN17. The single tryptophan residue of IQN17 (denoted Trp-571) provides an excellent probe of specific binding to the hydrophobic pocket of gp41. […] To test a compound for binding to the gp41 pocket, two one-dimensional ^1H NMR measurements were made on samples in deuterated buffers. First, a reference (control) spectrum of IQN17 was taken, identifying the Trp571 chemical shifts in the unbound form. A second spectrum was acquired on a sample containing both IQN17 and the compound in question. An optional third spectrum of the D-peptide (or other small molecule, or mix of molecules) was also taken. ^1H NMR experiments were performed on a Bruker AMX 500 spectrometer. Data was processed in Felix 98.0 (MSI) on Silicon Graphics computers, and all spectra were referenced to DSS. All experiments were performed at 25° C. in 100 mM NaCl, 50 mM sodium phosphate (pH 7.5). All buffers used were >99.7% D2O, to remove overlapping resonances from exchangeable backbone and side chain protons. Solute concentrations ranged from 0.3-1.0 mM for individual peptides, 0.8-1.0 mM for 1:1 commplexes of IQN17 with each D-peptide.
Simple binding of two or more components is expected to result both in broader peaks (due to the increased size of the complex) and in changes in chemical shifts (due to the different chemical environments experienced by nuclei in free and bound forms). Specific binding to the hydrophobic pocket is indicated by a change in the Trp-571 chemical shifts, as well as by a broadening of peaks. Binding can also be indicated by similar changes in the chemical shifts and peak widths of the molecule (peptides and small organic molecules, for example) assayed. […] All IQN17/D-peptide complexes studied gave similar results, though varying in the degree of chemical shift dispersion (FIG. 9B). Thus, binding was indicated in all cases.
To confirm that the strongly upfield-shifted peaks all correspond to a single sidechain (almost certainly Trp-571), two-dimensional NMR (TOCSY) experiments were performed on each of the IQN17/D-peptide complexes. As expected, the TOCSY experiments indicate that in each complex, the strongly upfield-shifted resonances all belong to the same aromatic side chain, identified as a group of four scalar-coupled protons. For several of the complexes studied, NOESY experiments also indicate contact between this sidechain and other (unassigned) aromatic groups, as expected from the IQN17/D10pep1 structure. Not all of the potential NOE crosspeaks could be resolved, due to intense spectral overlap in the 6.8-7.6 ppm region. 2D NOESY and TOCSY experiments as described in J. Cavanaugh, W. J. Fairbrother, A. G. Palmer, N. J. Skelton, Protein NMR Spectroscopy: Principles and Practice (1996) were performed on samples of IQN17 and of each complex, with mixing times ranging between 30-90 ms (NOESY) and 30-70 ms (TOCSY). Spectral widths of 11,111 Hz and 5555 Hz were used in the acquisition (t2) and indirect (t1) dimensions, respectively. TOCSY experiments employed the DIPSI-2rc mixing sequence (J. Cavanaugh, M. Rance, J. Magn. Reson. Serv. A., 105:328 (1993)).

[2] = tested on: syncytia formation between Chinese hamster ovary cell expressing HXB2 envelope and HeLa-CD4-LTR-Beta-gal cells; conditions: two additional N-terminal lysines vs parent D-peptide
Experimental: In each instance, a blocking group (e.g., an acetyl group) was present at the N terminus and a CONH2 (amide) was present at the C-terminus.
Inhibition of cell/cell fusion (i.e., syncytia formation) was assayed by co-culturing Chinese hamster ovary cell expressing HXB2 envelope (K. Kozarsky, et al., J. Acquir. Immune. Defic. Syndr., 2:163 (1989) and the HeLa-CD4-LTR-Beta-gal cells (M. Emerman, NIH AIDS Reagent program) in the presence of varying concentration of peptide. When mixed, these cells form syncytia, or multi-nucleated cells, which express β-galactosidase. Approximately twenty hours after co-culturing the cells, the monolayers were stained with 5-bromo-4-chloro-3-indolyl-β-D-galactoside to visualize the syncytia. The syncytia are visualized with a microscope and counted manually (a syncytia is scored as a fused cell containing three or more nuclei). The IC50 was calculated from fitting the data to a Langmuir equation [y=k/(1+[peptide]/IC50)+x], where y=number of syncytia and k and x are scaling constants.

[3] = tested on: recombinant luciferase-expressing HIV-1; format: cell-based; conditions: infectivity assay
Experimental: The potency of C34 peptides in inhibiting viral infection and the HIV-1 infection inhibitory activity of the D-peptides were assayed using recombinant luciferase-expressing HIV-1 (Chen, B. K. et al., J. Virol., 68:654 (1994); Malashkevich, V. N., et al., Proc. Natl. Acad. Sci., USA, 95:9134 (1998)).
The apparent melting temperatures (Tm) were estimated from the thermal dependence of the CD signal at 222 nm. Inhibition of viral entry was measured in a cell-culture infection assay using recombinant luciferase-expressing HIV-1. Inhibition of cell-cell fusion was measured in a syncytium assay. The means and standard errors are from triplicate trials.

[4] = tested on: HIV-1; conditions: Phase I clinical trial; cited from earlier work

Substance: Ac-GACDLKAKEWFWLCAA-CONH2 (Ac-G[dA][dC][dD][dL][dK][dA][dK][dE][dW][dF][dW][dL][dC][dA][dA]-NH2; disulfide 3-14 (inferred)) [Peptide D10pep4]
- binding to the hydrophobic pocket of IQN17 [1]: contact the pocket with very similar binding interfaces

Substance: Ac-KKGACPPLNKEWAWLCAA-CONH2 (Ac-KKG[dA][dC][dP][dP][dL][dN][dK][dE][dW][dA][dW][dL][dC][dA][dA]-NH2; disulfide 5-16 (inferred); not fully specified (residues 1, 2); printed as Ac-KKGACPPLNKEWAWLCAA-CONH2) [Peptide D10pep12]
- binding to the hydrophobic pocket of IQN17 [1]: contact the pocket with very similar binding interfaces

Substance: Ac-KKGACGLGQEEWFWLCAA-CONH2 (Ac-KKG[dA][dC]G[dL]G[dQ][dE][dE][dW][dF][dW][dL][dC][dA][dA]-NH2; disulfide 5-16 (inferred); not fully specified (residues 1, 2); printed as Ac-KKGACGLGQEEWFWLCAA-CONH2) [Peptide D10pep3]
- binding to the hydrophobic pocket of IQN17 [1]: contact the pocket with very similar binding interfaces

Substance: Ac-KKGACEARHREWAWLCAA-CONH2 (Ac-KKG[dA][dC][dE][dA][dR][dH][dR][dE][dW][dA][dW][dL][dC][dA][dA]-NH2; disulfide 5-16 (inferred); not fully specified (residues 1, 2); printed as Ac-KKGACEARHREWAWLCAA-CONH2) [Peptide D10pep1a]
- IC50 for inhibition of syncytia formation relative to parent peptide without the added lysines [2]: approximately 2 fold
- binding to the hydrophobic pocket of IQN17 [1]: broader peaks and dramatically different chemical shifts

Substance: Ac-KKGACMRGEWEWSWLCAA-CONH2 (Ac-KKG[dA][dC][dM][dR]G[dE][dW][dE][dW][dS][dW][dL][dC][dA][dA]-NH2; disulfide 5-16 (inferred); not fully specified (residues 1, 2); printed as Ac-KKGACMRGEWEWSWLCAA-CONH2) [Peptide D10pep10]
- binding to the hydrophobic pocket of IQN17 [1]: contact the pocket with very similar binding interfaces

Substance: Ac-GACEARHREWAWLCAA-CONH2 (Ac-G[dA][dC][dE][dA][dR][dH][dR][dE][dW][dA][dW][dL][dC][dA][dA]-NH2; disulfide 3-14 (inferred)) [Peptide D10pep1]
- inhibition of infection of cells [3]: inhibit infection of cells
- binding to the hydrophobic pocket of IQN17 [1]: contact the pocket with very similar binding interfaces

Substance: enfuvirtide
- antiviral activity in vivo [4]: reduced viral loads

Substance: Ac-GACSRSQPEWEWLCAA-CONH2 (Ac-G[dA][dC][dS][dR][dS][dQ][dP][dE][dW][dE][dW][dL][dC][dA][dA]-NH2; disulfide 3-14 (inferred)) [Peptide D10pep6]
- binding to the hydrophobic pocket of IQN17 [1]: contact the pocket with very similar binding interfaces
